Assay [1] concerns Staphylococcus aureus. Nature of the assay: Minimum inhibitory concentration against growth of patient isolated methicillin-resistant Staphylococcus aureus (MRSA1). The format is functional.
Assay [2] concerns Staphylococcus aureus. Nature of the assay: Minimum inhibitory concentration against growth of patient isolated methicillin-resistant Staphylococcus aureus (MRSA2). The format is functional.
The test system of the next assay is Escherichia coli. The assay can be described thus: Minimum inhibitory concentration against growth of […] Escherichia coli […]. The format is functional.
The next assay deals with Enterococcus faecium. The assay can be described thus: Minimum inhibitory concentration against growth of patient isolated vancomycin-resistant Enterococcus faecium (VRE1). The format is functional.
The test system of assay [3] is Enterococcus faecalis. Nature of the assay: Minimum inhibitory concentration against growth of patient isolated vancomycin-resistant Enterococcus faecalis ATCC 51299 (VRE2). The format is functional.
The subject of assay [4] is Enterococcus faecalis. Nature of the assay: Minimum inhibitory concentration against growth of patient isolated vancomycin-resistant Enterococcus faecalis ATCC 51299 (VRE2); no inhibition. It counts as functional, organism-based.
For assay [5], the system named is Staphylococcus aureus. The assay can be described thus: Minimum inhibitory concentration against growth of patient isolated methicillin-resistant Staphylococcus aureus (MRSA2); no inhibition. The format is functional, organism-based.

Molecules are shown by their SMILES. In brackets after ≈: the same amount, converted by molar mass. Activity calls are given as the source filed them. The rule behind the calls is not given here.

`CC(C)=CCC12CCN(C)C1Nc1ccccc12` (configuration not stated): the minimal inhibitory concentration (MIC) against Staphylococcus aureus [1] turned out to be 40 µg/mL (≈ 165 µM); in the assay with Staphylococcus aureus [2] it was 40 µg/mL (≈ 165 µM); in the assay on Escherichia coli, 160 µg/mL (≈ 660 µM); in the assay on Enterococcus faecium, 20 µg/mL (≈ 82.5 µM); against Enterococcus faecalis [3], 40 µg/mL (≈ 165 µM).

With `CC(C)=CCN1c2ccccc2C2(CC=C(C)C)CCN(C=O)C12` (configuration not stated), the MIC result in the assay on Enterococcus faecalis [4] and in the assay on Staphylococcus aureus [5] was “inactive” in each case.

For orientation: MIC means the lowest concentration found to suppress growth.

The record behind these values is ChEMBL document CHEMBL1128060, “Deoxypseudophrynaminol: a novel antibacterial alkaloid” (1995).
